Measurements: paper PMC6687188, “Novel lactate dehydrogenase inhibitors with in vivo efficacy against Cryptosporidium parvum” (PLoS Pathogens, 2019)

Biological target: recombinant CpLDH protein (Cryptosporidium parvum, UniProt Q9GT92, F198L/K295E/R251K)
Settings: not given

Structure (SMILES)	MEAN CpLDH INHIBITION (%)
Cc1ccc([S+](c2ccc(C)cc2)c2ccc(C)cc2)cc1 [NSC157930]	-72.47
CCOC(=O)CCn1ncc(Cl)c(Cl)c1=O [NSC634471]	-23.23
COC(=O)C[S+]([O-])c1ccccc1 (stereo not shown) [NSC620050]	-37.27
COc1ccc2c(O)c3[n+](cc2c1OC)CCc1cc2c(cc1-3)OCO2 [NSC123390]	-31.27
Cc1cc2cc3cc(C)c(N)cc3nc2cc1N.Cl [NSC13973]	-3.43
O=C1Nc2c(Cl)cc(Cl)cc2/C1=N/N=C/c1ccco1 [NSC329279]	-39.07
Nc1nc(N)c2cc(Sc3cccc(C(F)(F)F)c3)ccc2n1 [NSC305782]	-11.03
OCCNCN(CNCCO)c1nc(N(CNCCO)CNCCO)nc(N(CNCCO)CNCCO)n1 [NSC653000]	-58.42
COc1ccc2nc(C)cc(NCCCCCCCCCNc3cc(C)nc4ccc(OC)cc34)c2c1 [NSC10010]	-19.54
S=C1Nc2cnc3ccccc3c2SC1c1ccccc1 (stereo not shown) [NSC667467]	-21.66
Nc1nc(SCc2ccccc2Cl)c2ncn(C3OC(CO)C(O)C3O)c2n1 (stereo not shown) [NSC40666]	-57.18
O=C(O)CC(S)C(=O)O (stereo not shown) [NSC41809]	-14.35
Cc1cccc(C)c1NC(=O)C(=O)C(c1ccccc1Cl)S(=O)(=O)Cc1ccccc1Cl (stereo not shown) [NSC657722]	-170.05
CC(=O)[O][Hg].c1ccc2c(c1)ccc1ccccc12 [NSC534]	-63.87
CCC12C[N+]3([O-])CCc4c([nH]c5ccccc45)C(C(=O)OC)(c4cc5c(cc4OC)N(C)C4C(O)(C(=O)OC)C(OC(C)=O)C6(CC)C=CCN7CCC54C76)CC(C3)C1O2 (stereo not shown) [NSC304421]	-126.27
CCCCS(=N)(=O)CCC(N)C(=O)O (stereo not shown) [NSC326231]	-24.75
Cc1cc(N(C)C)ccc1N=Nc1ccc2ncccc2c1 [NSC680516]	-19.55
CO[C@H]1/C=C/O[C@@]2(C)Oc3c(C)c(O)c4c(c3C2=O)C(=O)C=C(NC(=O)/C(C)=C\C=C\[C@H](C)[C@H](OC=O)[C@@H](C)[C@@H](O)[C@@H](C)[C@H](OC(C)=O)[C@@H]1C)C4=O [NSC239375]	-42.34
CC(=O)[O][Sn]([CH2]c1ccccc1)([CH2]c1ccccc1)[CH2]c1ccccc1 [NSC164909]	-58.07
Clc1ccc(-c2c(C3=NCCCN3)nnn2-c2ccc(Cl)cc2)cc1 [NSC645033]	-3.66
COC(=O)C1(C)CCCC2(C)C3CCC4CC3(C=C4CO)CCC12 (stereo not shown) [NSC360861]	-29.11
O=C(CC(=O)c1ccccc1)CC(O)(c1ccccc1)c1ccccc1 [NSC634232]	-33.26

Structure (SMILES)	MEAN CpLDH INHIBITION (%)
CCCCCCCCCCCCCCCCCCOP(=O)([O-])OCC[N+](C)(C)C [NSC282880]	-0.05
Cc1ccccc1NC(=O)C(=O)C(c1cnc2ccc([N+](=O)[O-])cc2n1)[N+](=O)[O-] (stereo not shown) [NSC644735]	-56.47
COc1cc(OC)c(OC)cc1/C=C/c1ccnc2ccccc12 [NSC80756]	-22.71
Cc1c2ccnc(C(N)=O)c2c(C)c2c1[nH]c1ccccc12.Cl [NSC335142]	-27.72
CC(=O)O[C@@H]1[C@@H](O)[C@H](O[C@H]2[C@H](OC(=O)[C@H]3CC[C@H]4[C@@H](C3)O[C@@]3(C[C@H](OC(=O)/C=C/c5ccccc5)[C@H](C)CO3)[C@]43CO3)O[C@H](C)[C@@H](O)[C@@H]2OC(C)=O)O[C@H](C)[C@H]1O [NSC328426]	-30.81
COc1ccc(OC)c(-c2cc(=O)c3c(OC)c(OC)c(OC)c(OC)c3o2)c1 [NSC71300]	-64.35
C=C1C(=O)OC2CC1C(OC(C)=O)C/C(C)=C/CC/C(C)=C\CCC2(C)O (stereo not shown) [NSC36437]	-19.06
O=C1NC(=S)NC(=O)C1C(=O)Nc1ccccc1 [NSC336628]	-66.49
O=S(=O)(O)SC/C=C\CSS(=O)(=O)O.[Na+] [NSC624161]	-27.85
Cc1c(C(=O)C/C(=N\O)C(=O)Nc2cc(Cl)c(Cl)cc2Cl)[n+](=O)c2ccccc2n1[O-] [NSC635544]	-233.40
BrCCC[P+](c1ccccc1)(c1ccccc1)c1ccccc1.[Br-] [NSC84074]	-40.93
CC1CCC2(OC1)OC1CC3C4CC=C5CC(OC6OC(CO)C(OC7OC(C)C(OC8OC(C)C(O)C(O)C8O)C(O)C7O)C(O)C6OC6OC(C)C(O)C(O)C6O)CCC5(C)C4CCC3(C)C1C2C (stereo not shown) [NSC306864]	-7.27
COc1c(O[C@@H]2O[C@H](CO)[C@@H](O)[C@H](O)[C@H]2O)cc2c(c1OC)-c1ccc(OC)c(=O)cc1[C@@H](NC(C)=O)CC2 [NSC32992]	-5.35
OC(CN1CCCCC1)c1ccc(/C=C/c2ccc(Cl)cc2)cc1 (stereo not shown) [NSC26040]	-70.84
CCN(CC)CCOc1ccccc1/C=C/c1noc2ccccc12.Cl [NSC601101]	-6.25
O=C1c2ccccc2C(=O)c2c(O)c(NCCNCCO)cc(O)c21 [NSC316157]	-4.71
O=[n+]1c2c(n([O-])c3ccccc31)-c1cccc3cccc-2c13 [NSC60309]	-23.17
COc1ccc(C2C=C(c3ccc4c(c3)OCO4)Oc3c2c(=O)oc2ccccc32)cc1OC (stereo not shown) [NSC211489]	-11.02
C[C@]12Cc3cnc(-c4ccccc4)nc3C[C@@H]1CC[C@@H]1[C@@H]2CC[C@@]2(C)[C@H]1CC[C@]2(C)O [NSC39863]	-20.27
O=C(Nc1ccccc1-c1nn(C(=S)Nc2ccccc2)c(=S)n(C(=S)Nc2ccccc2)c1=O)C(F)(F)F [NSC623093]	-49.57
N#CCCN(CCC#N)c1ccc(C=Nc2ccc(F)cc2)cc1 [NSC620277]	-46.45
CN(C)c1ccc2c(SCC(=O)OCC(=O)[C@@]3(O)CC[C@H]4[C@@H]5CCC6=CC(=O)C=C[C@]6(C)[C@H]5C(=O)C[C@@]43C)c3ccc(N(C)C)cc3nc2c1 [NSC337851]	-16.37

Structure (SMILES)	MEAN CpLDH INHIBITION (%)
Cc1nnc(-n2c(O)cc(=O)n(-c3ccccc3)c2=S)nc1/C=C/c1ccc(N(C)C)cc1 [NSC698031]	-6.31
O=[N+]([O-])[O-].O=[N+]([O-])[O-].O=[N+]([O-])[O-].[Ga+3] [NSC15200]	-34.76
Cc1c(Cl)cccc1NC(=O)/C=C/c1ccccc1 [NSC191392]	-18.93
N#CC1=C(N)Oc2c(ccc3cccnc23)C1c1ccccc1 (stereo not shown) [NSC631583]	-36.52
CC(=O)O[C@H]1C(=O)[C@@]2(C)[C@H]([C@H](OC(=O)c3ccccc3)[C@]3(O)C[C@H](O)C(C)=C1C3(C)C)[C@]1(OC(C)=O)CO[C@@H]1C[C@@H]2O [NSC330753]	-63.01
C=C1[C@@H](C)[C@H]2[C@H](Cc3ccccc3)NC(=O)C23[C@H](OC(C)=O)/C=C/[C@@](C)(O)C[C@@H](C)C/C=C/[C@H]3[C@@H]1O (stereo partly shown) [NSC305222]	-217.96
Cc1cc(N(CCOS(C)(=O)=O)CCOS(C)(=O)=O)ccc1C=Nc1ccc(-c2csc(-c3ccccc3)n2)c(Cl)c1 [NSC281613]	-15.80
CC1=CC(O)C(O)C2(C)C1CC1OC(=O)C(O)C3C(C)C(O)C4(O)OCC13C42 (stereo not shown) [NSC14974]	0.167
COc1cc(OC)c2c(C)cc(=O)oc2c1 [NSC688795]	-40.28
COc1cc(-c2cc(=O)c3c(OC)c(OC)c(OC)c(OC)c3o2)cc(OC)c1OC [NSC67580]	-41.90
CN(CO)c1nc(N(C)CO)nc(N(C)CO)n1 [NSC283162]	-65.77
Cc1nc(Nc2ccc(Cl)c(Cl)c2)sc1C(/C=C/c1ccc2c(c1)OCO2)=N/Nc1ccc([N+](=O)[O-])cc1[N+](=O)[O-] [NSC640335]	-79.51
O=C1c2ccccc2C(=O)c2sc(Nc3ccc(Cl)c(Cl)c3)nc21 [NSC631521]	-0.12
CC(/C=N/N=C(N)N)=N\N=C(N)N [NSC32946]	-50.60
CN(C)c1ccc(/C=C2\C=Cc3ccccc32)cc1 [NSC80087]	-24.95
NC(=O)C#CC(N)=O [NSC65381]	0
C[C@@H]1CC[C@H]2C(C)(C)[C@H]3C[C@@]12CC[C@@]3(C)O [NSC403883]	-51.63
Nc1ncnc2c([C@@H]3O[C@H](CO)[C@@H](O)[C@H]3O)[nH]nc12 [NSC102811]	-35.09
C[C@]12CC[C@H](OC(=O)Cc3ccc(N(CCCl)CCCl)cc3)C[C@@H]1CC[C@@H]1[C@@H]2CC[C@]2(C)NC(=O)CC[C@@H]12 [NSC290205]	-205.36
C1CCNCC1.S=C(S)N1CCCCC1 [NSC1906]	-58.60
CC1=C/C(=N\OCC(=O)O)CC(c2ccc(C(C)C)cc2)C1 (stereo not shown) [NSC680506]	-8.88
Cc1ccc(N=N/C(=N\NC(=O)c2ccc(C)cc2)c2ccc(N(CCC#N)CCC#N)cc2C)cc1 [NSC703550]	-165.27

Same assay, conditions: 20 μM compound; 10 mM pyruvate, 1 mM NADH; values below 0 = augmenters

Structure (SMILES)	MEAN CpLDH INHIBITION (%)
Oc1cccc2cccnc12 [NSC285166]	-48.97
